Results published in publication PMC11435058, “Synthesis of New Thiazole-Privileged Chalcones as Tubulin Polymerization Inhibitors with Potential Anticancer Activities” (Pharmaceuticals, 2024).

Legend:
Assay in all cases: NCI-60 anticancer screen (SRB; single dose and five doses)
MDA-MB-468 = format: cell-based, human; settings: for activity at 10 µM: 48 h, MDA-MB-468, dose of 10 μM, read-out: Growth Percentage
In short: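 Readout was sulforhodamine B staining, read spectrophotometrically as percent growth against untreated controls. This followed a 48 h exposure to one 10μM dose across roughly 60 human tumor lines of the NCI screen.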

MOLT-4 = settings: Homo sapiens; for activity at 10 µM: MOLT-4, 48 h, read-out: Growth Percentage
RPMI-8226 = settings: Homo sapiens; for activity at 10 µM: RPMI-8226, 48 h, read-out: Growth Percentage
HOP-62 = settings: Homo sapiens; for activity at 10 µM: HOP-62, 48 h, read-out: Growth Percentage
NCI-H226 = settings: Homo sapiens; for activity at 10 µM: NCI-H226, 48 h, read-out: Growth Percentage
NCI-H23 = settings: Homo sapiens; for activity at 10 µM: NCI-H23, 48 h, read-out: Growth Percentage
NCI-H322M = settings: Homo sapiens
COLO 205 = settings: Homo sapiens; for activity at 10 µM: COLO 205, 48 h, read-out: Growth Percentage
HCC-2998 = settings: Homo sapiens, HCC 2998, 48 h, read-out: Growth Percentage
HCT-15 = settings: Homo sapiens; for activity at 10 µM: HCT-15, 48 h, read-out: Growth Percentage
SF-295 = settings: Homo sapiens; for activity at 10 µM: SF-295, 48 h, read-out: Growth Percentage
U251 = settings: Homo sapiens; for activity at 10 µM: U-251, 48 h, read-out: Growth Percentage
LOX IMVI = settings: Homo sapiens; for activity at 10 µM: 48 h, read-out: Growth Percentage
MALME-3M = settings: Homo sapiens
M14 = settings: Homo sapiens; for activity at 10 µM: M14, 48 h, read-out: Growth Percentage
SK-MEL-2 = settings: Homo sapiens; for activity at 10 µM: SK-MEL-2, 48 h, read-out: Growth Percentage
UACC-257 = settings: Homo sapiens; for activity at 10 µM: UACC-257, 48 h, read-out: Growth Percentage
UACC-62 = settings: Homo sapiens; for activity at 10 µM: UACC-62, 48 h, read-out: Growth Percentage
OVCAR-4 = settings: Homo sapiens; for activity at 10 µM: OVCAR-4, 48 h, read-out: Growth Percentage
OVCAR-8 = settings: Homo sapiens; for activity at 10 µM: OVCAR-8, 48 h, read-out: Growth Percentage
786-0 = settings: Homo sapiens; for activity at 10 µM: 786-0, 48 h, read-out: Growth Percentage
TK-10 = settings: Homo sapiens; for activity at 10 µM: TK-10, 48 h, read-out: Growth Percentage
MCF7 = settings: Homo sapiens; for activity at 10 µM: MCF7, 48 h, read-out: Growth Percentage
BT-549 = settings: Homo sapiens; for activity at 10 µM: BT-549, 48 h, read-out: Growth Percentage
T-47D = settings: Homo sapiens, T47D; for activity at 10 µM: 48 h, read-out: Growth Percentage
[1] = 48 h, read-out: Growth Percentage

Cc1[nH]c(=S)sc1C(=O)/C=C/c1ccc(Cl)cc1 [2f, (E)-3-(4-Chlorophenyl)-1-(4-Methyl-2-Thioxo-2,3-Dihydrothiazol-5-yl)Prop-2-En-1-One]
activity at 10 µM (MDA-MB-468; Homo sapiens): -21.2%
IC50 (MDA-MB-468; Homo sapiens, MDA-MB-468, MDA-MB-468, Breast Cancer, five dose): 12 µM
IC50 (MDA-MB-468; Homo sapiens, MDA-MB-468, MDA-MB-468, five doses): 2.51 µM
GI50 (MDA-MB-468; Homo sapiens, MDA-MB-468, Breast Cancer, five dose): 2.51 µM
CC50 (MDA-MB-468; Homo sapiens, MDA-MB-468, Breast Cancer, five dose, read-out: LC50 (the source's name)): 30.2 µM
TGI (MDA-MB-468; MDA-MB-468, Breast Cancer, five dose): 8.32 µM
GI50 (MOLT-4; MOLT-4): 14.5 µM
IC50 (MOLT-4; MOLT-4): 24.6 µM
activity at 10 µM (MOLT-4): 10.2%
CC50 (MOLT-4; MOLT-4, read-out: LC50): > 100 µM
IC (TGI) (MOLT-4; MOLT-4, read-out: TGI): 79.4 µM
GI50 (RPMI-8226; RPMI-8226): 2.4 µM
activity at 10 µM (RPMI-8226): 13.8%
IC50 (RPMI-8226; RPMI-8226, RPMI-8226, five doses): 2.4 µM
IC50 (RPMI-8226; RPMI-8226, five-dose, Leukemia RPMI-8226): 4.68 µM
CC50 (RPMI-8226; RPMI-8226, read-out: LC50): > 100 µM
IC (TGI) (RPMI-8226; RPMI-8226, read-out: TGI): 8.32 µM
GI50 (HOP-62; HOP-62): 5.37 µM
IC50 (HOP-62; HOP-62): 12 µM
activity at 10 µM (HOP-62): -2.73%
CC50 (HOP-62; HOP-62, read-out: LC50): 72.4 µM
IC (TGI) (HOP-62; HOP-62, read-out: TGI): 22.9 µM
GI50 (NCI-H226; NCI-H226): 13.8 µM
IC50 (NCI-H226; NCI-H226): 36.3 µM
activity at 10 µM (NCI-H226): 20.5%
CC50 (NCI-H226; NCI-H226, read-out: LC50): > 100 µM
IC (TGI) (NCI-H226; NCI-H226, read-out: TGI): 38 µM
GI50 (NCI-H23; NCI-H23): 14.8 µM
IC50 (NCI-H23; NCI-H23): 26.9 µM
activity at 10 µM (NCI-H23): 36.4%
CC50 (NCI-H23; NCI-H23, read-out: LC50): 58.9 µM
IC (TGI) (NCI-H23; NCI-H23, read-out: TGI): 29.5 µM
GI50 (NCI-H322M): 10.2 µM
IC50 (NCI-H322M): 19.9 µM
CC50 (NCI-H322M; read-out: LC50): 51.3 µM
IC (TGI) (NCI-H322M; read-out: TGI): 22.9 µM
GI50 (COLO 205; COLO 205): 19.1 µM
IC50 (COLO 205; COLO 205): 33.9 µM
activity at 10 µM (COLO 205): 78.2%
CC50 (COLO 205; COLO 205, read-out: LC50): 74.1 µM
IC (TGI) (COLO 205; COLO 205, read-out: TGI): 38 µM
activity at 10 µM (HCC-2998): -21.3%
GI50 (HCT-15; HCT-15): 4.07 µM
IC50 (HCT-15; HCT-15): 5.37 µM
activity at 10 µM (HCT-15): -19.8%
CC50 (HCT-15; HCT-15, read-out: LC50): 49 µM
IC (TGI) (HCT-15; HCT-15, read-out: TGI): 16.6 µM
GI50 (SF-295; SF-295): 15.8 µM
IC50 (SF-295; SF-295): 28.8 µM
activity at 10 µM (SF-295): 42.6%
CC50 (SF-295; SF-295, read-out: LC50): 55 µM
IC (TGI) (SF-295; SF-295, read-out: TGI): 29.5 µM
GI50 (U251; U-251): 3.39 µM
IC50 (U251; U-251): 4.79 µM
activity at 10 µM (U251): 11.3%
CC50 (U251; U-251, read-out: LC50): 40.7 µM
IC (TGI) (U251; U-251, read-out: TGI): 13.2 µM
GI50 (LOX IMVI): 3.39 µM
IC50 (LOX IMVI): 4.47 µM
activity at 10 µM (LOX IMVI): -48.1%
CC50 (LOX IMVI; read-out: LC50): 38 µM
IC (TGI) (LOX IMVI; read-out: TGI): 12 µM
GI50 (MALME-3M): 14.5 µM
IC50 (MALME-3M): 30.9 µM
CC50 (MALME-3M; read-out: LC50): 75.9 µM
IC (TGI) (MALME-3M; read-out: TGI): 33.1 µM
GI50 (M14; M14): 14.1 µM
IC50 (M14; M14): 24.6 µM
activity at 10 µM (M14): 34.4%
IC (TGI) (M14; M14, read-out: TGI): 32.4 µM
GI50 (SK-MEL-2; SK-MEL-2): 13.8 µM
IC50 (SK-MEL-2; SK-MEL-2): 27.5 µM
activity at 10 µM (SK-MEL-2): 58.4%
CC50 (SK-MEL-2; SK-MEL-2, read-out: LC50): 56.2 µM
IC (TGI) (SK-MEL-2; SK-MEL-2, read-out: TGI): 28.2 µM
GI50 (UACC-257; UACC-257): 13.8 µM
IC50 (UACC-257; UACC-257): 26.9 µM
activity at 10 µM (UACC-257): 66.8%
CC50 (UACC-257; UACC-257, read-out: LC50): 56.2 µM
IC (TGI) (UACC-257; UACC-257, read-out: TGI): 27.5 µM
GI50 (UACC-62; UACC-62): 9.77 µM
IC50 (UACC-62; UACC-62): 17 µM
activity at 10 µM (UACC-62): 33.9%
IC (TGI) (UACC-62; UACC-62, read-out: TGI): 22.4 µM
GI50 (OVCAR-4; OVCAR-4): 13.8 µM
IC50 (OVCAR-4; OVCAR-4): 25.1 µM
activity at 10 µM (OVCAR-4): 76.3%
CC50 (OVCAR-4; OVCAR-4, read-out: LC50): 55 µM
IC (TGI) (OVCAR-4; OVCAR-4, read-out: TGI): 27.5 µM
GI50 (OVCAR-8; OVCAR-8): 8.51 µM
IC50 (OVCAR-8; OVCAR-8): 14.5 µM
activity at 10 µM (OVCAR-8): 4.96%
CC50 (OVCAR-8; OVCAR-8, read-out: LC50): 55 µM
IC (TGI) (OVCAR-8; OVCAR-8, read-out: TGI): 22.9 µM
GI50 (786-0; 786-0): 4.68 µM
IC50 (786-0; 786-0): 7.76 µM
activity at 10 µM (786-0): 16.6%
CC50 (786-0; 786-0, read-out: LC50): 58.9 µM
IC (TGI) (786-0; 786-0, read-out: TGI): 20.4 µM
GI50 (TK-10; TK-10): 15.1 µM
IC50 (TK-10; TK-10): 28.2 µM
activity at 10 µM (TK-10): 40.4%
CC50 (TK-10; TK-10, read-out: LC50): 55 µM
IC (TGI) (TK-10; TK-10, read-out: TGI): 28.8 µM
GI50 (MCF7; MCF7): 3.16 µM
IC50 (MCF7; MCF7): 4.68 µM
activity at 10 µM (MCF7): 4.86%
CC50 (MCF7; MCF7, read-out: LC50): 43.6 µM
IC (TGI) (MCF7; MCF7, read-out: TGI): 13.2 µM
GI50 (BT-549; BT-549): 5.75 µM
IC50 (BT-549; BT-549): 20.9 µM
activity at 10 µM (BT-549): -14.4%
IC (TGI) (BT-549; BT-549, read-out: TGI): 20.4 µM
GI50 (T-47D): 3.47 µM
IC50 (T-47D): 14.1 µM
activity at 10 µM (T-47D): 1.38%
CC50 (T-47D; read-out: LC50): 81.3 µM
IC (TGI) (T-47D; read-out: TGI): 19.1 µM

COc1ccc(/C=C/C(=O)c2sc(=S)[nH]c2C)cc1OC [2o, (E)-3-(3,4-Dimethoxyphenyl)-1-(4-Methyl-2-Thioxo-2,3-Dihydrothiazol-5-yl)Prop-2-En-1-One]
activity at 10 µM (MDA-MB-468; Homo sapiens): -0.42%
activity at 10 µM (MOLT-4): 73.8%
activity at 10 µM (RPMI-8226): 18.6%
activity at 10 µM (HOP-62): 34.1%
activity at 10 µM (NCI-H226): 80.5%
activity at 10 µM (NCI-H23): 65.1%
activity at 10 µM (NCI-H322M; [1]): 63.4%
activity at 10 µM (COLO 205): 116%
activity at 10 µM (HCC-2998): 41.7%
activity at 10 µM (HCT-15): 31.3%
activity at 10 µM (SF-295): 66.5%
activity at 10 µM (U251): 33.7%
activity at 10 µM (LOX IMVI): 26.9%
activity at 10 µM (MALME-3M; [1]): 89.6%
activity at 10 µM (M14): 82.2%
activity at 10 µM (SK-MEL-2): 68.6%
activity at 10 µM (UACC-257): 71.4%
activity at 10 µM (UACC-62): 63.9%
activity at 10 µM (OVCAR-4): 47.6%
activity at 10 µM (OVCAR-8): 34.3%
activity at 10 µM (786-0): 60%
activity at 10 µM (TK-10): 75.4%
activity at 10 µM (MCF7): 28.9%
activity at 10 µM (BT-549): 18.9%
activity at 10 µM (T-47D): 44.1%
